Where a chain is given by its changes, count along the chain named.
What was measured:
[1] = target: T1, 5-HT3A receptor F130A+N138A double mutant (Homo sapiens, UniProt P46098, F125A/N133A); assay: two-electrode voltage clamp, F130A+N138A double mutant receptor in Xenopus oocytes; type: cell-based; conditions: 300 µM chanoclavine with 5-HT
T1 construct: host or cells: Xenopus laevis oocytes injected with in vitro transcribed mRNA
T1 sequence (P46098 24-478 F125A/N133A): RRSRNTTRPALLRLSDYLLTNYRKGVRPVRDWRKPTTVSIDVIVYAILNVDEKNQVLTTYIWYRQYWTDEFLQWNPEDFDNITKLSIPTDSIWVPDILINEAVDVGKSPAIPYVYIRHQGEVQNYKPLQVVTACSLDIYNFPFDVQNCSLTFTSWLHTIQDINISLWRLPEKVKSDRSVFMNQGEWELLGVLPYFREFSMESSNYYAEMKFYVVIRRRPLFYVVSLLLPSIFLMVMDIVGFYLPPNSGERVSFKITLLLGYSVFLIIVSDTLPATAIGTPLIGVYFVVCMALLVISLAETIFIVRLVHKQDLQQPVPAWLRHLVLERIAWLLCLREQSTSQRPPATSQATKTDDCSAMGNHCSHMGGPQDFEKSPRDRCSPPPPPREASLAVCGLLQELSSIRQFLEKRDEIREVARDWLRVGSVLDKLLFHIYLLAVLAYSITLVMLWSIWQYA
Description: (§1) The site-directed mutation of one or two amino acids was performed using sense and antisense primers and Pfu polymerase (QuickChange Site-Directed Mutagenesis Kit; Agilent, Santa Clara, CA, USA) and amplified by polymerase chain reaction (PCR) to increase the target domain. After removing the existing methylated cDNA using Dpn Ⅰ, the PCR products were transformed into Escherichia coli strain DH5α. The cDNA of the 5-HT3A receptor was linearized by Xho Ⅰ at the end of the multi-cloning site, followed by transcription using T7 polymerase and a transcription kit (mMESSAGE mMACHINE T7 Transcription Kit; Thermo Fisher Scientific, Waltham, MA, USA). […]
(§2) To isolate oocytes, female Xenopus laevis were put into a container filled with ice and left for about one hour. […] When the Xenopus oocytes were ready for injection, 50 ng of mRNA was injected with a nanoliter injector (Drummond Scientific, Vernon Hills, IL, USA). […]
(§3) The oocytes in which mRNA was expressed during the incubation period allowed for the estimation of channel or receptor properties for observing drug and ligand potential interactions using a two-electrode voltage clamp (OC-725C; Warner Instruments, Hamden, CT, USA) and Digidata (1322A; Molecular Devices, Sunnyvale, CA, USA). […] The voltage and current electrodes were filled with 3 M KCl (0.3–0.7 MΩ) and analyzed at a −80 mV holding potential. […]

[2] = test system: 5-HT3A receptor I228A mutant; assay: two-electrode voltage clamp, I228A mutant receptor in Xenopus oocytes; type: cell-based, human; conditions: 100 µM chanoclavine
Description: as §1, §2, §3

[3] = target: T2, 5-HT3A receptor L156A mutant (Homo sapiens, UniProt P46098, L151A); assay: two-electrode voltage clamp, L156A mutant receptor in Xenopus oocytes; type: cell-based; conditions: 100 µM chanoclavine, read-out: Inhibition Percentage (%)
T2 construct: host or cells: Xenopus laevis oocytes injected with in vitro transcribed mRNA
T2 sequence (P46098 24-478 L151A): T1 sequence (P46098 24-478 F125A/N133A) with A102F, A110N, L128A
Description: as §1, §2, §3

[4] = target: T3, 5-HT3A receptor I139A mutant (Homo sapiens, UniProt P46098, I134A/I139A); assay: two-electrode voltage clamp, I139A mutant receptor in Xenopus oocytes; type: cell-based; conditions: 100 µM chanoclavine, read-out: Inhibition Percentage (%)
T3 construct: host or cells: Xenopus laevis oocytes injected with in vitro transcribed mRNA
T3 sequence (P46098 24-478 I134A/I139A): T1 sequence (P46098 24-478 F125A/N133A) with A102F, A110N, I111A, I116A
Description: as §1, §2, §3

## CN[C@@H]1Cc2c[nH]c3cccc(c23)[C@H]1/C=C(\C)CO [chanoclavine]
[1]
  effect on inward current: not significantly decreased
[2]
  Inhibition Percentage (%): 66.16 ± 9.2%
[3]
  inhibition at 100 µM: 46.1 ± 6.5%
[4]
  inhibition at 100 µM: 92.8 ± 4.9%
